Series [1] concerns the target T1, 5-HT1A receptor (Homo sapiens, UniProt P08908).
T1 construct: expressed in transfected cells; host or cells: CHO cells, stably transfected
T1 sequence (P08908 1-422): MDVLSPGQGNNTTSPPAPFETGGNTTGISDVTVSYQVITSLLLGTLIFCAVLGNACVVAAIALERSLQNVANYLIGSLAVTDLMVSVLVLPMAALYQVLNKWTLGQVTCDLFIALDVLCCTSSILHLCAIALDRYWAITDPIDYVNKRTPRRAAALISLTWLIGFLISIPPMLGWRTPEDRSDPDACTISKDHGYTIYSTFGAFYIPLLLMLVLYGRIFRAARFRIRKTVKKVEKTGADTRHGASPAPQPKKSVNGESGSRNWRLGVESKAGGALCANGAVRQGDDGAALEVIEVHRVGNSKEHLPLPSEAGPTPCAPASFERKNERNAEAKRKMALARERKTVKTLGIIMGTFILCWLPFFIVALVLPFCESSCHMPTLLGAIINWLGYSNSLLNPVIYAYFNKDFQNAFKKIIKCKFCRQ
The experiment in a line: cell-based. To be noted: agonist, Ca2+ flux; for Emax: CHO, CHO cells with Gα15, max dose, read-out: 5-HT1A % Act @ Max Dose; for EC50: CHO cells with Gα15. The method, boiled down: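 Receptor agonism was assessed as intracellular calcium mobilization in stably transfected cells, with CHO cells additionally carrying Gα15 for the 5-HT1A readout. Calcium was monitored with Fluo-4 Direct dye.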

For series [2], the target named is T2, 5-HT2A receptor (Homo sapiens, UniProt P28223). The series can be described thus: cell-based. It counts as cell-based. The conditions noted are these: agonist, beta-arrestin recruitment; for Emax: max dose, read-out: 5-HT2A Arrestin % Act @ Max Dose; for EC50: PathHunter, read-out: 5-HT2A Arrestin EC50. Here is the method:
Arrestin Functional Assay at 5-HT2A. Recruitment of beta-arrestin was determined using a PathHunter assay at Eurofins DiscoverX (Fremont, CA) according to their standard protocols. PathHunter GPCR beta-arrestin assays take advantage of DiscoverX's proprietary Enzyme Fragment Complementation technology. The GPCR is fused in frame with a small enzyme donor fragment ProLink™ (PK) and co-expressed in cells stably expressing a fusion protein of beta-arrestin and the larger, N-terminal deletion mutant of beta-galactosidase. Activation of the GPCR (5-HT2A receptor in this case) stimulates binding of beta-arrestin to the PK-tagged GPCR and forces complementation of the two enzyme fragments, resulting in the formation of an active beta-galactosidase enzyme. This interaction leads to an increase in enzyme activity that can be measured using chemiluminescent PathHunter Detection Reagents. Briefly, PathHunter cells expressing 5-HT2A receptors were seeded in a volume of 20 μL into 384-well plates and incubated at 37° C. for the appropriate time prior to testing. […] Plates were then imaged on a microplate reader and the agonist activity was calculated using the following formula: % Activity=100%×(mean RLU of test sample-mean RLU of vehicle control)/(mean MAX control ligand-mean RLU of vehicle control), where RLU=relative light units.

Series [3] addresses T2, 5-HT2A receptor. The series can be described thus: cell-based. It counts as cell-based. To be noted: Ca2+ flux; for Emax: HEK293, agonist, HEK293, max dose, read-out: 5-HT2A % Act @ Max Dose; for EC50: agonist, HEK293. The arrangement: expressed in transfected cells; host or cells: HEK293, stably transfected. The method, boiled down:
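Agonism measured as calcium flux on FLIPR Tetra. Receptor lines: HEK293 for 5-HT2A and 5-HT2B, CHO with Gα15 for 5-HT1A; dye loading with Fluo-4 Direct and probenecid (2.5 mM final) ran 50 min at 37 °C before compound addition and signal reading.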

The target in series [4] is T3, 5-HT2B receptor (Homo sapiens, UniProt P41595).
T3 construct: expressed in transfected cells; host or cells: HEK293, stably transfected
The experiment in a line: cell-based. The conditions noted are these: Ca2+ flux; for Emax: HEK293, agonist, HEK293, max dose, read-out: 5-HT2B % Act @ Max Dose; for EC50: agonist, HEK293. The class given is cell-based. The method, boiled down:
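FLIPR Tetra fluorescence read-out of calcium flux after compound addition. Receptor-expressing stable lines were used (HEK293 for 2A/2B; CHO with Gα15 for 1A), dye-loaded with Fluo-4 Direct and 2.5 mM final probenecid, 50 min at 37 °C.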
In general terms: Calcium flux is commonly read through the fluorescence of an indicator in the cells.

Series [5] is described as follows: in vitro. The class given is in vitro ADME, human. The conditions noted are these: HLM 0.50 mg/mL, NADPH 1 mM, 1 μM compound, pH 7.4, 37° C., 60 min; for microsomal CLint / half-life: human, microsomes; for microsomal CLint: read-out: Intrinsic clearance (Clint); for half-life: read-out: half-life (t1/2).
A short description of series [6]: in vitro. The conditions noted are these: RLM (male Sprague-Dawley) 0.50 mg/mL, NADPH 1 mM, 1 μM compound, pH 7.4, 37° C., 60 min; for microsomal CLint / half-life: rat, microsomes; for microsomal CLint: read-out: Intrinsic clearance (Clint); for half-life: read-out: half-life (t1/2). It counts as in vitro ADME, rat. The text has this:
RLM Stability Pooled RLM from male Sprague-Dawley rats (Xenotech R1000) were used.

Series [7] in a line: in vitro. It counts as in vitro ADME, mouse. The conditions noted are these: MLM (male CD-1) 0.50 mg/mL, NADPH 1 mM, 1 μM compound, pH 7.4, 37° C., 60 min; for microsomal CLint / half-life: mouse, microsomes; for microsomal CLint: read-out: Intrinsic clearance (Clint); for half-life: read-out: half-life (t1/2). The text has this: MLM Stability Pooled MLM from male CD-1 mice (BIOIVT M00501) were used.

Series [8] deals with T4, 5-HT2C receptor (Homo sapiens, UniProt P28335).
T4 sequence (P28335 33-458): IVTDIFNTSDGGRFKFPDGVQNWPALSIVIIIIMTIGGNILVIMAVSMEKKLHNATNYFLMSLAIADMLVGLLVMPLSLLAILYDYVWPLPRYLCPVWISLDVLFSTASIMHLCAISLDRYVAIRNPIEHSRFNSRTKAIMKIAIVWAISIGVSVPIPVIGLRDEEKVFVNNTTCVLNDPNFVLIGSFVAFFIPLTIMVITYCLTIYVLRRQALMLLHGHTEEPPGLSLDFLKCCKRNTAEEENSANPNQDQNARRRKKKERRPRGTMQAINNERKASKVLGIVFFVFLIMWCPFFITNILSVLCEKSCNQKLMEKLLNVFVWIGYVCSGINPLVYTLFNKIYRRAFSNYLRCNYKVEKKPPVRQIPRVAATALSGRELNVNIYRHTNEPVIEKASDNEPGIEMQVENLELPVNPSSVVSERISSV
The series can be described thus: cell-based. To be noted: read-out: 5-HT2C % Act @ Max Dose.

The target of series [9] is T5, 5-HT1B receptor (Homo sapiens, UniProt P28222).
T5 construct: expressed in transfected cells
The series can be described thus: cAMP accumulation functional assay at 5-HT1B. The class given is cell-based. To be noted: agonist, cAMP accumulation; for Emax: max dose, read-out: 5-HT1B % Act @ Max Dose. Put shortly:
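Stably transfected human 5-HT1B cells were incubated 60 min at room temperature, after which detection reagent was applied for another 60 min at RT. The read-out was cAMP accumulation, used as a measure of agonist activity.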
(In general: cAMP levels reflect the balance of adenylyl cyclase and phosphodiesterase activity.)

Series [10] addresses T2, 5-HT2A receptor. The experiment in a line: biochemical. The class given is binding. The arrangement: expressed in transfected cells; host or cells: HEK293, stably transfected. To be noted: [3H]ketanserin 1 nM; HEK293 stable cell line; 1 h, 25 °C. The method, boiled down: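 Test compounds competed with [^3H]ketanserin for receptor binding, and affinity was derived from the radioligand displacement.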

The mark [11] stands for this setting: agonist, Ca2+ flux, Eurofins DiscoverX protocol, max dose.

Structures are written as SMILES. Where two headings read alike, the source gives them in different places. Some results are limits rather than exact numbers.

T3 sequence (P41595 whole entry): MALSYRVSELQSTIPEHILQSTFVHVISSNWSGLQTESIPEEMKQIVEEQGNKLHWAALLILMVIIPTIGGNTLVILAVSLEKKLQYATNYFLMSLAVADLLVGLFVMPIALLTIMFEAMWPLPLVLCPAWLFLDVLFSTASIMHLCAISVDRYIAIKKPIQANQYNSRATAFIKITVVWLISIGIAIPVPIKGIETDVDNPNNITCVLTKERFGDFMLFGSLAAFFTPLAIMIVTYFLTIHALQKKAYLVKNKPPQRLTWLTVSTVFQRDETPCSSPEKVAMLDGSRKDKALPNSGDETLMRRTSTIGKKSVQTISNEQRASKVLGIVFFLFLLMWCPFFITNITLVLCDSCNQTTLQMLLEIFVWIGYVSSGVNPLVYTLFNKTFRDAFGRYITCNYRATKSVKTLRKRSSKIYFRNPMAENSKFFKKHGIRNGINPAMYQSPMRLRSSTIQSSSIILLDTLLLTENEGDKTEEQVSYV
T5 sequence (P28222 whole entry): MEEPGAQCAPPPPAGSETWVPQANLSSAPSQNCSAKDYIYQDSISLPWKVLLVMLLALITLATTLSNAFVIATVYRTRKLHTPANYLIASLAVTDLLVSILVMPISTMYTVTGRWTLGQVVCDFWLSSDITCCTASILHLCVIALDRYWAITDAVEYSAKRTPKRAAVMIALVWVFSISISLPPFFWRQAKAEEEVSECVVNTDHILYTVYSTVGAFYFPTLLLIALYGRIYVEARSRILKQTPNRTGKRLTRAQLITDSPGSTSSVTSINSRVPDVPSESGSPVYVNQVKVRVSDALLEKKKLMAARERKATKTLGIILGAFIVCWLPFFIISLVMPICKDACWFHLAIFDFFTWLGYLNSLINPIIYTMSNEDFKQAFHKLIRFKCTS
T2 sequence (P28223 whole entry, the tested form may be a part): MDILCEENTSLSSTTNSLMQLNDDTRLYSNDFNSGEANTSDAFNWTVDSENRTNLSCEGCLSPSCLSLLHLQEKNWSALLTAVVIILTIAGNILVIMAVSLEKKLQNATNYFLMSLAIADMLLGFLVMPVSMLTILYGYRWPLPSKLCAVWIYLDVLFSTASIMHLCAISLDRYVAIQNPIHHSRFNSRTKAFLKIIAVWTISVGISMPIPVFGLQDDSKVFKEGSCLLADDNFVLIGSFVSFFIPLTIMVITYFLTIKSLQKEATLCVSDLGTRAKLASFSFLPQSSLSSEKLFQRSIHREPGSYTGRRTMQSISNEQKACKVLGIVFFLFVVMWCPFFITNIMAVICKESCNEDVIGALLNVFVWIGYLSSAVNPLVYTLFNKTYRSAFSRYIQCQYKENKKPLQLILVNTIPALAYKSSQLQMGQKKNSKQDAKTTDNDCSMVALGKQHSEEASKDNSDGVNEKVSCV

In the case of `CCN(CC)C(=O)[C@H]1C=C2c3cccc4[nH]cc(c34)C[C@H]2N(CCCF)C1` [Compound 2a, (6aR,9S)—N,N-diethyl-7-(3-fluoropropyl)-4,6,6a,7,8,9-hexahydroindolo[4,3-fg]quinoline-9-carboxamide], the Emax in [1] is 96.8%; in series [2], 83.3%; in series [3], 90.3%; in [4], 40.1%; in series [8] (setting [11]) it was 119%. For the same molecule, the “half-life (t1/2)” value was 17.018 min in series [5], 9.673 min in series [6] and 1.776 min in series [7].

Regarding `CCCN1C[C@@H](C(=O)N[C@H](C)CC)C=C2c3cccc4[nH]cc(c34)C[C@H]21` [Compound 3a, (6aR,9S)—N—((R)-sec-butyl)-7-propyl-4,6,6a,7,8,9-hexahydroindolo[4,3-fg]quinoline-9-carboxamide], the Emax in series [1] turned out to be 108%; in series [2], 113%; in series [3] it was 92%; in series [4], 52.8%; in series [8] (setting [11]), 109%. Besides, the entries for the “half-life (t1/2)” value in series [5], in series [6] and in series [7] were 2.2 min, 1.4 min and 0.6 min, respectively.

In the case of `CCNC(=O)[C@@H]1C=C2c3cccc4[nH]cc(c34)C[C@H]2N(Cc2cccc(OC)c2)C1` [Compound 63, (6aR,9R)—N-ethyl-7-(3-methoxybenzyl)-4,6,6a,7,8,9-hexahydroindolo[4,3-fg]quinoline-9-carboxamide], the Emax in series [1] was 88.4%; in [2], 64%; in series [3], 91%; in [4], -0.31%; in series [9] it was 45.7%. For the same molecule, the EC50 (as a rule, the concentration that produces a half-maximal response) in [1] is 6110 nM; in series [2] it was 12.6 nM; in series [3] it was 96.9 nM; in series [4], greater than 10000 nM; in series [9], greater than 10000 nM. Moreover, the results for the microsomal CLint in series [5], in series [6] and in series [7] were 442 µL/min/mg, 645 µL/min/mg and 1610 µL/min/mg, respectively. Also, the half-life in series [5] amounted to 3.1 min; in [6], 2 min; in series [7] it was 0.9 min. The affinity in series [10] corresponds to a Ki of 11.3 nM.

With `CCNC(=O)[C@@H]1C=C2c3cccc4[nH]cc(c34)C[C@H]2N(Cc2cccc(O)c2)C1` [Compound 64, (6aR,9R)—N-ethyl-7-(3-hydroxybenzyl)-4,6,6a,7,8,9-hexahydroindolo[4,3-fg]quinoline-9-carboxamide], the Emax in [1] came to 87%; in series [2], 52%; in series [3], 75.8%; in series [4], 1.49%; in series [9], 68.8%. In addition, the EC50 in series [1] was 424 nM; in [2], 23.2 nM; in [3], 53.3 nM; in [4] it was greater than 10000 nM; in [9], 4520 nM. In addition, the microsomal CLint in series [5] was 100 µL/min/mg; in [6], 222 µL/min/mg; in series [7], 312 µL/min/mg. The half-life in [5] is 13.8 min; in series [6], 6.2 min; in [7] it was 4.4 min. The affinity in series [10] corresponds to a Ki of 12 nM.

In the case of `CC[C@@H](C)NC(=O)[C@H]1C=C2c3cccc4[nH]cc(c34)C[C@H]2N(C)C1` [Int8a], the Emax in series [1] stood at 104%; in series [2], 35.5%; in [3], 72.6%; in series [4], 6.87%; in series [8] it was 93.7%.

Consider `CCC(CC)NC(=O)[C@H]1C=C2c3cccc4[nH]cc(c34)C[C@H]2N(C)C1` [Int14a], for which the Emax in [1] is 70.3%; in series [2] it was 44.3%; in series [3], 33%; in series [4], 1.86%; in series [8], 119%.

In the case of `CCC[C@@H](C)NC(=O)[C@H]1C=C2c3cccc4[nH]cc(c34)C[C@H]2N(C)C1` [Int17a], the Emax is 88.5% in [1]; 43.7% in series [2]; 63.3% in series [3]; 5.63% in [4]; 112% in [8].

Values taken from patent US20260317319A1, “NOVEL ERGOLINES AND METHODS OF TREATING MOOD DISORDERS” (Gilgamesh Pharma Inc., priority 2023, published 2026).
